{"source": "PubChem BioAssay (NCI)", "test_in_all_cases": "NCI tumour cell line growth inhibition, 48 h", "key": {"NCI-H23 lung": {"tested_on": "NCI-H23 lung"}, "NCI-H460 lung": {"tested_on": "NCI-H460 lung"}, "NCI-H522 lung": {"tested_on": "NCI-H522 lung"}, "NCI/ADR-RES ovarian": {"tested_on": "NCI/ADR-RES ovarian"}, "OVCAR-3 ovarian": {"tested_on": "OVCAR-3 ovarian"}, "OVCAR-4 ovarian": {"tested_on": "OVCAR-4 ovarian"}, "OVCAR-5 ovarian": {"tested_on": "OVCAR-5 ovarian"}, "OVCAR-8 ovarian": {"tested_on": "OVCAR-8 ovarian"}, "PC-3 prostate": {"tested_on": "PC-3 prostate"}, "RPMI-8226 leukemia": {"tested_on": "RPMI-8226 leukemia"}, "SF-268 CNS": {"tested_on": "SF-268 CNS"}, "SF-295 CNS": {"tested_on": "SF-295 CNS"}, "SF-539 CNS": {"tested_on": "SF-539 CNS"}, "SK-MEL-2 melanoma": {"tested_on": "SK-MEL-2 melanoma"}, "SK-MEL-28 melanoma": {"tested_on": "SK-MEL-28 melanoma"}, "SK-MEL-5 melanoma": {"tested_on": "SK-MEL-5 melanoma"}, "SK-OV-3 ovarian": {"tested_on": "SK-OV-3 ovarian"}, "SN12C renal": {"tested_on": "SN12C renal"}, "SNB-19 CNS": {"tested_on": "SNB-19 CNS"}, "SNB-75 CNS": {"tested_on": "SNB-75 CNS"}, "SW-620 colon": {"tested_on": "SW-620 colon"}, "T-47D breast": {"tested_on": "T-47D breast"}, "U251 CNS": {"tested_on": "U251 CNS"}, "UACC-257 melanoma": {"tested_on": "UACC-257 melanoma"}, "UO-31 renal": {"tested_on": "UO-31 renal"}}, "note": "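Where inhibition never reached the appropriate level, the endpoint shown equals the highest concentration tested. Otherwise, values were interpolated linearly from a five-concentration, 48-hour dose response in 96-well plates. The concentration for 50% growth inhibition is given as GI50. TGI: concentration producing complete growth inhibition.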", "data": [{"smiles": "O=C1C(=O)/C(=C/c2ccccc2)CCCCCC/C1=C/c1ccccc1", "values": [{"measurement": "GI50", "setting": "NCI-H23 lung", "result": 3.38, "unit": "µM"}, {"measurement": "TGI", "setting": "NCI-H23 lung", "result": 13.7, "unit": "µM"}, {"measurement": "GI50", "setting": "NCI-H460 lung", "result": 2.43, "unit": "µM"}, {"measurement": "TGI", "setting": "NCI-H460 lung", "result": 6.09, "unit": "µM"}, {"measurement": "GI50", "setting": "NCI-H522 lung", "result": 4.68, "unit": "µM"}, {"measurement": "TGI", "setting": "NCI-H522 lung", "result": 16.3, "unit": "µM"}, {"measurement": "GI50", "setting": "NCI/ADR-RES ovarian", "result": 4.78, "unit": "µM"}, {"measurement": "TGI", "setting": "NCI/ADR-RES ovarian", "result": "> 100", "unit": "µM"}, {"measurement": "GI50", "setting": "OVCAR-3 ovarian", "result": 1.92, "unit": "µM"}, {"measurement": "TGI", "setting": "OVCAR-3 ovarian", "result": 3.63, "unit": "µM"}, {"measurement": "GI50", "setting": "OVCAR-4 ovarian", "result": 2.78, "unit": "µM"}, {"measurement": "TGI", "setting": "OVCAR-4 ovarian", "result": 8.47, "unit": "µM"}, {"measurement": "GI50", "setting": "OVCAR-5 ovarian", "result": 2.68, "unit": "µM"}, {"measurement": "TGI", "setting": "OVCAR-5 ovarian", "result": 7.93, "unit": "µM"}, {"measurement": "GI50", "setting": "OVCAR-8 ovarian", "result": 3.14, "unit": "µM"}, {"measurement": "TGI", "setting": "OVCAR-8 ovarian", "result": 12.7, "unit": "µM"}, {"measurement": "GI50", "setting": "PC-3 prostate", "result": 3.19, "unit": "µM"}, {"measurement": "TGI", "setting": "PC-3 prostate", "result": 17.1, "unit": "µM"}, {"measurement": "GI50", "setting": "RPMI-8226 leukemia", "result": 1.9, "unit": "µM"}, {"measurement": "TGI", "setting": "RPMI-8226 leukemia", "result": 5.96, "unit": "µM"}, {"measurement": "GI50", "setting": "SF-268 CNS", "result": 2.74, "unit": "µM"}, {"measurement": "TGI", "setting": "SF-268 CNS", "result": 8.28, "unit": "µM"}, {"measurement": "GI50", "setting": "SF-295 CNS", "result": 2.58, "unit": "µM"}, {"measurement": "TGI", "setting": "SF-295 CNS", "result": 7, "unit": "µM"}, {"measurement": "GI50", "setting": "SF-539 CNS", "result": 1.98, "unit": "µM"}, {"measurement": "TGI", "setting": "SF-539 CNS", "result": 3.95, "unit": "µM"}, {"measurement": "GI50", "setting": "SK-MEL-2 melanoma", "result": 16.6, "unit": "µM"}, {"measurement": "TGI", "setting": "SK-MEL-2 melanoma", "result": 34.4, "unit": "µM"}, {"measurement": "GI50", "setting": "SK-MEL-28 melanoma", "result": 3.9, "unit": "µM"}, {"measurement": "TGI", "setting": "SK-MEL-28 melanoma", "result": 15.4, "unit": "µM"}, {"measurement": "GI50", "setting": "SK-MEL-5 melanoma", "result": 3.25, "unit": "µM"}, {"measurement": "TGI", "setting": "SK-MEL-5 melanoma", "result": 12.1, "unit": "µM"}, {"measurement": "GI50", "setting": "SK-OV-3 ovarian", "result": 8.9, "unit": "µM"}, {"measurement": "TGI", "setting": "SK-OV-3 ovarian", "result": 70.3, "unit": "µM"}, {"measurement": "GI50", "setting": "SN12C renal", "result": 2.35, "unit": "µM"}, {"measurement": "TGI", "setting": "SN12C renal", "result": 5.58, "unit": "µM"}, {"measurement": "GI50", "setting": "SNB-19 CNS", "result": 5.3, "unit": "µM"}, {"measurement": "TGI", "setting": "SNB-19 CNS", "result": 20.2, "unit": "µM"}, {"measurement": "GI50", "setting": "SNB-75 CNS", "result": 2.86, "unit": "µM"}, {"measurement": "TGI", "setting": "SNB-75 CNS", "result": 17.6, "unit": "µM"}, {"measurement": "GI50", "setting": "SW-620 colon", "result": 3.21, "unit": "µM"}, {"measurement": "TGI", "setting": "SW-620 colon", "result": 11.6, "unit": "µM"}, {"measurement": "GI50", "setting": "T-47D breast", "result": 5.09, "unit": "µM"}, {"measurement": "TGI", "setting": "T-47D breast", "result": "> 100", "unit": "µM"}, {"measurement": "GI50", "setting": "U251 CNS", "result": 1.62, "unit": "µM"}, {"measurement": "TGI", "setting": "U251 CNS", "result": 2.97, "unit": "µM"}, {"measurement": "GI50", "setting": "UACC-257 melanoma", "result": 2.3, "unit": "µM"}, {"measurement": "TGI", "setting": "UACC-257 melanoma", "result": 6.15, "unit": "µM"}, {"measurement": "GI50", "setting": "UO-31 renal", "result": 1.89, "unit": "µM"}, {"measurement": "TGI", "setting": "UO-31 renal", "result": 3.88, "unit": "µM"}]}]}
